This is an account of results in US5554620A, “Substituted 6,11-ethano-6,11-dihydrobenzo[b] quinolizinium salts and compositions and methods of use thereof” (Sterling Winthrop Inc., priority 1994, dated 1996).

pKi: −log10 of the molar value.

The assay concerns the target PCP receptor. The experiment in a line: [3H]TCP radioreceptor assay (binding to PCP recognition sites). Also noted: species or system rat (male Sprague-Dawley, whole brain). To be noted: for pKi: [3H]TCP approx. 1 nM, rat brain membranes, mean of at least two determinations; for [3H]TCP percent inhibition @ 10 μm: inhibition of [3H]TCP binding at 10 μM. The procedure:
[^3 H]TCP Radioreceptor Assay
[^3 H]TCP binding to PCP recognition sites was performed as described by Vignon et al. Brain Research 1983, 280, 194-197. Male Sprague-Dawley rats were sacrificed by decapitation, and whole brains were homogenized in 10 volumes (wt/vol) of cold Tris-HCl buffer (50 mM, pH 7.7) using a Brinkmann Polytron (setting 6, 30 sec). The homogenate was centrifuged at 40,000×g for 10 min at 4° C. The supernatant was decanted, and the homogenization and centrifugation steps were repeated twice as described above. Following this, the pellet was resuspended in Tris-HCl (5 mM, pH 7.7) at a tissue concentration of 0.5-0.75 g/mL, and one mL aliquots were frozen at -70° C. until use. The binding characteristics for PCP recognition sites were not altered by the freezing of membrane suspensions.
On the day of the assay, membrane aliquots were thawed, resuspended in fresh 5 mM Tris-HCl buffer at a tissue concentration of 1 mg/mL, and stored on ice until use. Each assay tube contained 100 μl of [^3 H]TCP at a final concentration of approximately 1 nM, 100 μL of various concentrations of the compounds of interest, 500 μL of the tissue suspension and 300 μL of buffer to a final assay volume of 1 mL and a final protein concentration of 0.5 mg/tube. Non-specific binding was defined by addition of a final concentration of 100 μM PCP to blank tubes. All tubes were incubated at room temperature for 25 min before termination of the reaction by rapid filtration over Whatman GF/B glass fiber filters that had been presoaked in a solution of 0.5% polyethylenimine for at least 1 hr prior to use. Filters were washed with three 4 mL volumes of cold Tris buffer. Following addition of scintillation cocktail, the amount of bound radioactivity was determined by liquid scintillation spectrometry using a Beckman LS 5000TA liquid scintillation counter with an efficiency for tritium of approximately 55%. Inhibition constants (Ki values) were calculated using the EBDA/LIGAND program (McPherson, J. Pharmacol. Meth. 1985, 14, 213-228), purchased from ElsevierBiosoft, Inc. Results are reported as the Ki values (in nM) which are expressed as the mean of at least two separate determinations; or as a percent (%) inhibition of binding at 10 μM.

The compound “6,11-ethano-12,12-di(3-furyl)-10-stearyloxy-6,11-dihydrobenzo[b]quinolizinium chloride [Example 163]” showed a pKi of 8.12.
Turning to `COc1cccc(C23c4ccccc4CC2C2c4ccccc4C3c3cccc[n+]32)c1` (single isomer, unassigned) [5(d), 6,11[2',3']-3'-(3-methoxyphenyl)-indanyl]16,11-dihydrobenzo[b]quinolizinium hexafluorophosphate], the pKi was 7.66.
In turn, `CC12CC(c3ccccc3)(c3ccccc3)C(c3ccccc31)c1cccc[n+]12` (single isomer, unassigned) [20(h), 6,11-ethano-12,12-diphenyl-6-methyl-6,11-dihydrobenzo[b]quinolizinium chloride 1/2 hydrate] gave a negative-log Ki (pKi) of 8.15.
In turn, `CCOC1(c2ccoc2)C2c3ccccc3C(C1C)[n+]1ccccc12` (single isomer, unassigned) [65(c), 6,11-ethano-12-(3-furyl)-12-ethoxy-13-methyl-6,11-dihydrobenzo[b]quinolizinium hexafluorophosphate] showed a pKi of 8.55.
As for `c1ccc2c(c1)C1C3CCc4occc4C3(c3ccoc3)C2c2cccc[n+]21` (single isomer, unassigned) [69(c), 6,11[[5',4']-4'-(3-furyl)-4,5,6,7-tetrahydrobenzofuryl]-6,11-dihydrobenzo[b]quinolizinium perchlorate], the pKi was 9.05.
The same measure, in the same setting: the result for `c1ccc2c(c1)CC1C2C2c3ccccc3C1[n+]1ccccc12` (single isomer, unassigned) [Example 2(a), 6,11[[2',3']-indanyl]6,11-dihydrobenzo[b]quinolizinium chloride] reads 6.91; that for `c1ccc2c(c1)CC1C2C2c3ccccc3C1[n+]1ccccc12` (single isomer, unassigned) [Example 2(b), 6,11[[2',3']indanyl]6,11-dihydrobenzo[b]quinolizinium chloride], 6.58.
On the same count and under the same terms, the result for `C#CC1(c2ccccc2)CC2c3ccccc3C1c1cccc[n+]12` (single isomer, unassigned) [Example 56, 6,11-ethano-12-phenyl-12-ethynyl-6,11-dihydrobenzo[b]quinolizinium hexafluorophosphate] reads 7.25.
Compound `Cc1ccc(S(=O)(=O)n2nccc2C2(c3ccoc3)CC3c4ccccc4C2c2cccc[n+]23)cc1` (single isomer, unassigned) [Example 184(c), 6,11-ethano-12-(3-furyl)-12-[1-(p-toluenesulfonyl)pyrazol-5-yl]-6,11-dihydrobenzo[b]quinolizinium bromide] showed a pKi of 4.89.
`Cc1ccc(S(=O)(=O)n2nccc2C2(c3ccoc3)CC3c4ccccc4C2c2cccc[n+]23)cc1.[Br-]` (single isomer, unassigned) [Example 184(d), 6,11-ethano-12-(3-furyl)-12-[1-(p-toluenesulfonyl)pyrazol-5-yl]-6,11-dihydrobenzo[b]quinolizinium bromide]: the “[3H]TCP percent inhibition @ 10 μm” value is 53%.
Same read-out and setting: then `Cc1ccc(S(=O)(=O)n2nccc2C2(c3ccoc3)CC3c4cccc(O)c4C2c2cccc[n+]23)cc1` (single isomer, unassigned) [Example 199(a), 6,11-ethano-12-(3-furyl)-12-[1-(p-toluenesulfon-yl)-pyrazol-5-yl]-10-hydroxy-6,11-dihydrobenzo[b]quinolizinium perchlorate], with 27%.
Regarding `O=[N+]([O-])c1cccc2c1C1CC(c3ccoc3)(c3ccoc3)C2c2cccc[n+]21.[O-][Cl+3]([O-])([O-])[O-]` (single isomer, unassigned) [Example 201(c), 6,11-ethano-12,12-di(3-furyl)-7-nitro-6,11-dihydrobenzo[b]quinolizinium perchlorate], the pKi is 5.46.
Regarding `O=[N+]([O-])c1cccc2c1C1c3cccc[n+]3C2CC1(c1ccoc1)c1ccoc1.[O-][Cl+3]([O-])([O-])[O-]` (single isomer, unassigned) [Example 201(d), 6,11-ethano-12,12-di(3-furyl)-10-nitro-6,11-dihydrobenzo[b]quinolizinium perchlorate], the pKi was 7.31.
The same measure, in the same setting: the result for `COc1ccc2c(c1)C1(c3ccccc3)C3c4ccccc4C(C1C2)[n+]1ccccc13` (centres unmarked) [3(d), 6,11[[2',3']-3'-phenyl-6'-methoxyindanyl]6,11-dihydrobenzo[b]quinoliziniumhexafluorophosphate] reads 7.85; that for `COc1cccc2c1CC1C3c4ccccc4C(c4cccc[n+]43)C21c1ccccc1` (centres unmarked) [4(E), 6,11[[2',3']-3'-phenyl-7'-methoxy-indanyl]16,11-dihydrobenzo[b]quinolizinium hexafluoro-phosphate], 5.23; that for `COc1cccc(C23c4ccccc4CC2C2c4ccccc4C3c3cccc[n+]32)c1` (centres unmarked) [5(c), 6.11[[2',3']-3'-(3-methoxyphenyl)-indanyl]6,11-dihydrobenzo[b]quinolizinium hexafluorophosphate], 7.88.
Regarding `c1ccc2c(c1)CC1C3c4ccccc4C(c4cccc[n+]43)C21c1ccoc1` (centres unmarked) [6(c), 6,11[[2',3']-3'-(3-furyl)-indanyl]6,11-dihydrobenzo[b]quinolizinium hexafluorophosphate], the pKi is 8.92.
As to `c1ccc2c(c1)C1C3CCc4occc4C3(c3ccoc3)C2c2cccc[n+]21` (centres unmarked) [7(c), 6,11-[5',4"]-4'-(3-furyl)-4',5',6',7'-tetrahydrobenzofuryl]-6,11-dihydrobenzo[b]quinolizinium chloride], the pKi was 8.96.
Turning to `Cc1noc2c1CCC1C3c4ccccc4C(c4cccc[n+]43)C21c1ccoc1` (centres unmarked) [8(c), 6,11[[6',7']-7'-(3-furyl)-3'-methyl-4',5',6',7'-tetrahydrobenzisoxazol]6,11-dihydrobenzo[b]quinolizinium hexafluorophosphate], the pKi was 6.93.
Still for that read-out and setting: the result for `CCOC12c3ccoc3CCC1C1c3ccccc3C2c2cccc[n+]21` (centres unmarked) [9(b), 6,11[[5',4!]-4'-ethoxy-4',5',6',7'-tetrahydrobenzofuryl]-6,11-dihydrobenzo[b]quinolizinium hexafluorophosphate] reads 8.23.
The compound `c1ccc2c(c1)C1C3CCc4occc4C3(c3cc4ccccc4o3)C2c2cccc[n+]21` (centres unmarked) [10(c-G), 6,11[[5',4']-4'-(2-benzofuryl)-4',5',6',7'-tetrahydrobenzofuryl]6,11-dihydrobenzo[b]quinolizinium hexafluorophosphate] gave a pKi of 5.35.
The same measure, in the same setting: the result for `c1ccc2c(c1)C1C3CCc4occc4C3(c3cc4ccccc4o3)C2c2cccc[n+]21` (centres unmarked) [10(c-k), 6,11[[5',4']-4'-(2-benzofuryl)-4',5',6',7'-tetrahydro-benzofuryl]6,11-dihydrobenzo[b]quinolizinium hexafluorophosphate] reads 6.16.
Same read-out and setting: then `CCOC1(c2ccoc2)CC2c3ccccc3C1c1cccc[n+]12` (centres unmarked) [11(d), 6,11-ethano-12-(3-furyl)-12-ethoxy-6,11-dihydrobenzo[b]quinolizinium hexafluorophosphate], with 7.59; and `CCOC1(c2cc(C)oc2C)CC2c3ccccc3C1c1cccc[n+]12` (centres unmarked) [12(b), 6,11-ethano-12-(2,5-dimethyl)-3-furyl]-12-ethoxy-6,11-dihydrobenzo[b]quinolizinium hexafluorophosphate], with 6.60.
On the same count and under the same terms, the result for `CCOC1(c2ccoc2)CC2(C)c3ccccc3C1c1cccc[n+]12` [13(b), 6,11-ethano-12-(3-furyl)-12-ethoxy-6-methyl-6,11-dihydrobenzo[b]quinolizinium monobenzoyl-D-tartarate] reads 7.35.
In the case of `c1ccc2c(c1)C1C3CCc4sccc4C3(c3ccoc3)C2c2cccc[n+]21` (centres unmarked) [15(c), 6,11[[5',4']-4'-(3-furyl)-4',5',6',7'-tetrahydrothianaphthyl]6,11]-dihydrobenzo[b]quinolizinium hexafluorophosphate], the negative logarithm of the Ki (pKi) was 8.85.
The same measure, in the same setting: then `c1ccc(C2(c3ccccc3)C3c4ccccc4C([n+]4ccccc43)C23CC3)cc1` (centres unmarked) [22(b), 6,11-ethano-12,12-diphenyl-13,13-spirocyclopropyl-6,11-dihydrobenzo[b]quinolizinium chloride], with 8.04.
`Brc1ccc(C2(c3ccc(Br)cc3)CC3c4ccccc4C2c2cccc[n+]23)cc1` (centres unmarked) [23(c), 6,11-ethano-12,12-di-p-bromophenyl-6,11-dihydrobenzo[b]quinolizinium chloride]: the “[3H]TCP percent inhibition @ 10 μm” value amounted to 22%.
`c1ccc(C2(c3ccccn3)CC3c4ccccc4C2c2cccc[n+]23)nc1` (centres unmarked) [24(b), 6,11-ethano-12,12-di-(2-pyridyl)-6,11-dihydrobenzo[b]quinolizinium chloride hydrate]: the pKi was 8.08.

What is called pKi is −log10 of the Ki, conventionally taken in molar units.
